Data set [1] in a line: in vitro. Conditions: human, HEK293 cells.
Description: Growth inhibition of human HEK293 cells after 48 hrs by MTT assay
Data set [2] relates to HeLa. Kind of data set: cells. The note with it: Homo sapiens, 48 h.
Description: Growth inhibition of human HeLa cells after 48 hrs by MTT assay
For data set [3], the system named is SH-SY5Y. The data set can be described thus: cells. Conditions: Homo sapiens, 48 h.
Description: Growth inhibition of human SH-SY5Y cells after 48 hrs by MTT assay

From ChEMBL document CHEMBL1795331, “Synthesis and biological activity of optically active NCL-1, a lysine-specific demethylase 1 selective inhibitor” (Bioorg Med Chem, 2011) come the findings set out here.

The compound `N[C@H]1C[C@@H]1c1cccc(OCC[C@H](NC(=O)c2ccccc2)C(=O)NCc2ccccc2)c1` had a GI50 at 48 h in data set [1] of 17 µM. Besides, the 50% growth inhibitory concentration (GI50) in data set [2] was determined as 20 µM; in data set [3], 9 µM.

As to `N[C@@H]1C[C@H]1c1cccc(OCC[C@H](NC(=O)c2ccccc2)C(=O)NCc2ccccc2)c1`, the GI50 at 48 h in data set [1] came to 25 µM. The GI50 worked out at 74 µM in data set [2] and 9 µM in data set [3].
